Experimental data taken from ChEMBL document CHEMBL3603732, “Synthesis, biological evaluation and molecular modeling of new tetrahydroacridine derivatives as potential multifunctional agents for the treatment of Alzheimer's disease” (Bioorg Med Chem, 2015).
pIC50: −log10 of the molar value.

Tests used:
[1] = Cytotoxic activity against human A549 cells assessed as cell viability at 100 nM incubated for 48 hrs by WST1 assay; format: cell-based; details: read-out: Activity
[2] = tested on: acetylcholinesterase; test: Selectivity index, ratio of IC50 for cytotoxic activity against human A549 cells to IC50 for acetylcholinesterase in human erythrocytes; format: toxicity, cell-based; details: read-out: Ratio IC50
[3] = target: Acetylcholinesterase (Electrophorus electricus, UniProt O42275)
Description: Inhibition of electric eel AChE using ATC iodide substrate by Ellman's assay

[4] = target: Cholinesterase (Equus caballus, UniProt P81908)
Description: Inhibition of equine serum BChE using ATC iodide substrate by Ellman's assay

[5] = target: T1, Acetylcholinesterase (Homo sapiens, UniProt P22303); test: biochemical
Description: Inhibition of acetylcholinesterase in human erythrocytes using acetylthiocholine iodide substrate by spectrophotometric Ellman's method

[6] = tested on: A549; test: Cytotoxic activity against human A549 cells assessed as reduction in cell viability incubated for 48 hrs by WST1 assay; format: cell-based; details: A549, 48 h
[7] = target: T1, Acetylcholinesterase; test: Inhibition of AChE (unknown origin) assessed as enzyme-mediated Amyloid beta peptide (1 to 42) aggregation incubated for 5 hrs by thioflavin-T based fluorometric assay

Sequence of Acetylcholinesterase (Electrophorus electricus, UniProt O42275) (O42275 whole entry): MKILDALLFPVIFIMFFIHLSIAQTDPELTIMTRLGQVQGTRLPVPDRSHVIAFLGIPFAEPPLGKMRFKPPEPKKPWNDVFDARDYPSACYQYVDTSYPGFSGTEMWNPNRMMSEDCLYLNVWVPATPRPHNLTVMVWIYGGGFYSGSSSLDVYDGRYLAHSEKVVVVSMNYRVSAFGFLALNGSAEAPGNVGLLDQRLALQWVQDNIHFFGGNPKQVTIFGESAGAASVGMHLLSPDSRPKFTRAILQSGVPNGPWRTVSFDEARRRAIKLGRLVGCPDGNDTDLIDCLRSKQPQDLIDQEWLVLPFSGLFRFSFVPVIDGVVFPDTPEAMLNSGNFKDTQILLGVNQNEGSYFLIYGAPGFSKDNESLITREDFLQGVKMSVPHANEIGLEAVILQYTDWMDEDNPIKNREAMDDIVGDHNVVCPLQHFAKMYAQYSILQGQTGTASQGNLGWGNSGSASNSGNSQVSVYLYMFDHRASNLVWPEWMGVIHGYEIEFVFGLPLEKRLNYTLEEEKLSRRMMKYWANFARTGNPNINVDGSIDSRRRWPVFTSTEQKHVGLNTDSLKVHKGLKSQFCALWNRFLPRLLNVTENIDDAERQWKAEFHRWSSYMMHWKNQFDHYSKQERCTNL
Sequence of Cholinesterase (P81908 whole entry): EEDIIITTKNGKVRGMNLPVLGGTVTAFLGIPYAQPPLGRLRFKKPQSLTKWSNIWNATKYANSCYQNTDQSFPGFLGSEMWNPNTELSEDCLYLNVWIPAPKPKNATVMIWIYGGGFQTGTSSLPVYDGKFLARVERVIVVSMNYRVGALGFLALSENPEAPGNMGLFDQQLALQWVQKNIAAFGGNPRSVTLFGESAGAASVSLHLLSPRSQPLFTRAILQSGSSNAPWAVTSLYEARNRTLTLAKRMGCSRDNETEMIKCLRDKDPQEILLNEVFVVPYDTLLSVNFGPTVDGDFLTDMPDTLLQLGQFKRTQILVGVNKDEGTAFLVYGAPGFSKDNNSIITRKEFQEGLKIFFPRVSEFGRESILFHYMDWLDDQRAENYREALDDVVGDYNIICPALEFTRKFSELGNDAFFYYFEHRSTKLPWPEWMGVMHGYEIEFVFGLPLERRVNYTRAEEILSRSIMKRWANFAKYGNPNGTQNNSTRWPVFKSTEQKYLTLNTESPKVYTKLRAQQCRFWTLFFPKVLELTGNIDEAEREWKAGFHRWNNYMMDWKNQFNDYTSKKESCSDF
T1 sequence (P22303 whole entry): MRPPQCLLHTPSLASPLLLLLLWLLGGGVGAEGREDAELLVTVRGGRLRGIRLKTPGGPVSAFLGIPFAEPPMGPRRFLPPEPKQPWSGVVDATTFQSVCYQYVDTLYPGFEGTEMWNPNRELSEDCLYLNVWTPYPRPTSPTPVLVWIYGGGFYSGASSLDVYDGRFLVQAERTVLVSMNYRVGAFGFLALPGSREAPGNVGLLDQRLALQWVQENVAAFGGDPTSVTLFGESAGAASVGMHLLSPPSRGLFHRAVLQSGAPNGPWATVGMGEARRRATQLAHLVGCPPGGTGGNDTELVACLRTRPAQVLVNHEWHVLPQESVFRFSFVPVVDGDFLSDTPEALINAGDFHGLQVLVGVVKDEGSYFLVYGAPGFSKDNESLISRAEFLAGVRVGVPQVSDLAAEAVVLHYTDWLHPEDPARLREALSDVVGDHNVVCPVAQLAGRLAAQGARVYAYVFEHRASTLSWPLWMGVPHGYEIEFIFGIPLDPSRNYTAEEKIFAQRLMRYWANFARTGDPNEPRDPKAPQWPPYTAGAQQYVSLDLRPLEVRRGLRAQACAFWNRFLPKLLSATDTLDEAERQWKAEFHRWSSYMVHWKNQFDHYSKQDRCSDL

Row | Compound | viability at 48 h, 0.1 µM [1] [%] | selectivity ratio [2] | pIC50 [3] | pIC50 [4] | pIC50 [5] | pIC50 [6] | pIC50 [7]
1 | CN(C)c1ccc(C(=O)NCCNc2c3c(nc4ccccc24)CCCC3)cc1 | 93.7 | 275 | 9.40 | 9.30 | 6.85 | 4.41 | 4.92
2 | CN(C)c1ccc(C(=O)NCCCNc2c3c(nc4ccccc24)CCCC3)cc1 | 91.3 | 2500 | 6.70 | 7.13 | 7.72 | 4.33 | –
3 | CN(C)c1ccc(C(=O)NCCCCNc2c3c(nc4ccccc24)CCCC3)cc1 | – | – | 6.70 | 8.15 | 6.53 | – | –
4 | CN(C)c1ccc(C(=O)NCCCCCNc2c3c(nc4ccccc24)CCCC3)cc1 | – | – | 7.06 | 8.43 | 6.45 | – | –
5 | CN(C)c1ccc(C(=O)NCCCCCCNc2c3c(nc4ccccc24)CCCC3)cc1 | – | – | 9.22 | 8.96 | 7.19 | – | –
6 | CN(C)c1ccc(C(=O)NCCCCCCCNc2c3c(nc4ccccc24)CCCC3)cc1 | – | – | 6.78 | 6.68 | 7.12 | – | –
7 | CN(C)c1ccc(C(=O)NCCCCCCCCNc2c3c(nc4ccccc24)CCCC3)cc1 | – | – | 9.30 | 9.15 | 7.11 | – | –
8 | CN(C)c1ccc(C(=O)NCCCCCCCCCNc2c3c(nc4ccccc24)CCCC3)cc1 | – | – | 9.30 | 9.15 | 6.90 | – | –
